Source: patent US8690874B2, “Composition and process for bone growth and repair” (Zimmer Orthobiologics, Inc., priority 2000, dated 2014)
Several values for one entry are separate records, joined by “and”; a condition that tells them apart may be missing. Equal entries are not always repeated. Entries after “also recorded” stand apart in the source; their conditions may differ. Where two headings read alike, the source gives them in different places.

Key:
[1] = system: subcutaneous rat implant model; experiment: Subcutaneous rat implant model, collagen/GFm sponges supplemented with calcium phosphates (Example 3/5); type: in vivo; conditions: for Average Mineral Mass / Average Explant Mass / Average Histology Score [0-5]: inter-animal average; for Average Mineral Mass: ash weight; for Average Explant Mass: collagen 7 mg + GFm 10 μg, additive 7 mg (50 wt. %); for Average Histology Score [0-5] / Histology score, Direct Comparison Averages [0-5]: scoring of Table 7; for Explant mass, Direct Comparison Averages / Mineral mass, Direct Comparison Average / Histology score, Direct Comparison Averages [0-5]: intra-animal comparison subset; for Explant mass, Direct Comparison Δwt. % / Histology score, Direct Comparison [%] / Mineral mass, Direct Comparison Δwt. %: relative to intra-animal collagen/GFm control; for bone quality and maturity in histological sections: photomicrographs FIG. 15, H&E/Von Kossa, toluidine blue; for effect on explant and mineral mass: versus collagen controls / other compositions
Experimental: The advantages of the rat model for product evaluation include an accelerated rate of bone induction. Visible evidence of mineralization appears in the implant within several days (˜10), with typical experiments lasting between 14 and 21 days. The testing protocol involved implantation of porous collagen (bovine tendon Type 1, 7 mg, 96 vol. % porosity) samples containing a natural mixture of bovine, osteoinductive proteins (GFm, 10 μg). […] Samples were implanted in four subcutaneous sites including the upper quadrants of the abdomen (sites 1, 2) and the upper quadrants of the dorsal thorax (sites 6, 7). The osteoinductive differences between controls and calcium phosphate supplemented samples [7 mg, 50 wt. %] were assessed using three standard test protocols: histological tissue analysis and mineral composition via x-ray and ash weight analysis (Intermedics Orthopedics/Denver, Inc. Histology protocol STM 009; Intermedics Orthopedics/Denver, Inc. Alkaline phophatase protocol STM 0024, 0026).
Samples were assessed in comparison to two different control sample populations, including: collagen sponges and collagen/GFm sponges supplemented with 50 wt % devitalized bone matrix (DVBM) additives. The collagen/GFm control samples were used as a reference for a baseline osteoinductive response. A calcium phosphate additive was considered detrimental if it either reduced the explant or mineral mass values or if it negatively influenced bone maturation. […] These samples were prepared as an alternative for demineralized bone matrix (DBM) additives. Demineralized bone matrix provides both an ideal osteoconductive matrix for cellular invasion and bone mineralization and a pooled concentration of osteoinductive proteins.
ANOVA was performed without data replications turning the analysis into an expanded pool Student-T test. Statistical significance was predicted using α<0.05. […] Compositions that had no significant influence on mass are indicated in plain text. Compositions that stimulated a statistically significant improvement in mass are indicated in bold text [Tables 5 and 6].
The quality and skeletal maturity of produced bone was assessed through histological microscopic analysis of thin, stained tissue sections. […] Thin sections (4 μm) from the explant midlines were obtained with a microtome. One section was stained with hematoxylin & eosin (H&E) and one was stained with toluidine blue to highlight important cellular details. The H&E sections were counterstained with silver nitrate (Von Kossa technique) to highlight mineralized tissue components. The histological sections were scored for quality and maturity using a scoring system, outlined in Table 7, previously developed by Sulzer Biologics according to STM-021. […]

[2] = Equilibrium solubility of calcium and phosphate ions from calcium phosphate salts; type: physicochemical
[3] = pH buffering potential of calcium salts; type: physicochemical
[4] = equilibrium solubility of the salt

Compound	Average Mineral Mass [1]	Average Explant Mass [1]	Average Histology Score [0-5] [1]	Explant mass, Direct Comparison Averages [1]	Mineral mass, Direct Comparison Average [1]	Histology score, Direct Comparison Averages [0-5] [1]	Explant mass, Direct Comparison Δwt. % [1]	Histology score, Direct Comparison [%] [1]	Mineral mass, Direct Comparison Δwt. % [1]	improvement in histological score ([1]; intra-animal, relative to collagen control)	bone quality and maturity in histological sections [1]	Explant mass, Direct Comparison Δwt. % ([1]; listed as 2CaO.P2O5)	Mineral mass, Direct Comparison Δwt. % ([1]; listed as 2CaO.P2O5)	effect on explant and mineral mass [1]	histological score / osteoinductive performance, statistical comparison ([1]; α<0.05)	Insoluble fraction [200 mg/cc] ([2]; 200 mg/cc) [wt. %]	Equilibrium [Ca^2+] [2, 4] [µM]	Equilibrium [PO4^3−] [2, 4] [µM]	pH (buffering potential of the salt) [3]	pH (buffering potential of the salt) ([3]; listed as Hydroxyapatites)
O=P([O-])([O-])[O-].O=P([O-])([O-])[O-].[Ca+2].[Ca+2].[Ca+2] [3CaO•P2O5 (α-TCP), tricalcium phosphate]	6.5 mg	39.5 mg	1.1	58.7 mg	9.4 mg	1.3	−42.9% wt. %	−35.1%	−28.3% wt. %											
O=P([O-])([O-])OP(=O)([O-])[O-].[Ca+2].[Ca+2] [2CaO•P2O5•2H2O (CP), calcium pyrophosphate]	20.8 mg	126.2 mg	2.3	170.3 mg	31.5 mg	2.3	+99.6% wt. %	+11.1%	+163.0% wt. %	+163 wt. %	comparatively reduced in maturity but were greater than control samples	+99.6 wt. %	+263 wt. %	appreciably enhanced; also recorded: significantly enhanced explant and mineral mass values	Statistically superior improvements in histological score					
O=C([O-])[O-].[Ca+2] [CaCO3 (aragonite), calcium carbonate]	10.4 mg	69.4 mg	1.0	88.6 mg	14.5 mg	1.0	−27.3% wt. %	−63.9%	+3.8% wt. %											
O=P([O-])([O-])[O-].O=P([O-])([O-])[O-].[Ca+2].[Ca+2].[Ca+2] [3CaO•P2O5 (β-TCP), tricalcium phosphate]	8.1 mg	80.1 mg	1.3	71.6 mg	5.7 mg	1.3	−26.3% wt. %	−23.9%	−31.6% wt. %											
O=C([O-])[O-].[Ca+2] [calcium carbonates, calcium carbonate]											comparatively reduced									
O=C([O-])[O-].[Ca+2] [CaCO3 (calcite), calcium carbonate]	7.9 mg	67.4 mg	1.0	73.1 mg	8.1 mg	1.0	−28.0% wt. %	−58.3%	−3.2% wt. %											
hydroxyapatite [3.33CaO•P2O5 (HA-px)]	19.8 mg	113.5 mg	1.4	124.7 mg	21.9 mg	2.0	+4.5% wt. %	−26.7%	+74.3% wt. %											
hydroxyapatite [3.33CaO.P2O5(OH)2 (Calcitek)]							+44.1 wt. %		+279.6 wt. %											
hydroxyapatite [Ca5(PO4)3(OH) (HA)]											negative effect on bone ossicle maturation; also recorded: comparatively reduced			appreciably enhanced		99.9999	2.2	1.3	~8.5 and ~9	~8
hydroxyapatite [3.33CaO•P2O5 (HA-am)]	26.5 mg and 29.4 mg	129.9 mg and 117.9 mg	1.3 and 1.4	120.3 mg and 140.6 mg	27.1 mg and 30.4 mg	1.2 and 1.7														
